From patent US7166581B1, “Treatment of chemotherapeutic agent and antiviral agent toxicity with acylated pyrimidine nucleosides” (Wellstat Therapeutics Corporation, priority 1987, dated 2007)

Experiments:
[1] = Plasma uridine after oral uridine or TAU, with or without dipyridamole (Example 12); assay type: in vivo, female Balb/C mice
Experimental: Female Balb/C mice with a body weight of 20 grams were divided into four groups of 8 animals each: [table] Dipyridamole was administered by intraperitoneal injection 30 minutes prior to uridine or TAU Uridine was administered orally by gavage as an aqueous solution in a volume of 0.4 ml. TAU was administered by gavage in an emulsion vehicle (1:1 corn oil/water with 2.5% Tween 80). Two mice from each group were bled from the suborbital plexus at each time point: 0 (Basal uridine levels before TAU or uridine administration), 0.5, 1, 2, and 4 hours after administration of TAU or uridine Plasma samples (0.1 ml) were deproteinized by addition of 0.2 ml methanol followed by centrifugation. Samples were lyophilized and then reconstituted with HPLC buffer (100 mM ammonium acetate, pH 6.5, for subsequent assay of uridine by reverse phase HPLC with UV absorbance detection (254 nm). Data points are the mean of two samples for each time point.

[2] = test system: hematopoietic system (AZT toxicity); assay: Oral TAU vs hematopoietic damage by i.p. AZT (Example 9); assay type: in vivo, female Balb/C mice
Experimental: AZT (100 mg/kg i.p.) was given three times daily at 9 a.m., 4 p.m., and at 10 p.m. to fifty-six female Balb/C mice weighing approximately 19 grams each. Three times each day, at 9 a.m., 4 p.m., and 10 p.m., animals were treated with either water (control) or TAU at doses of 230, 460, or 920 mg/kg/treatment by oral intubation. Treatment volume was 0.2 ml for the control and TAU 460 groups, 0.1 ml for the TAU 230 group, and 0.4 ml for the TAU 920 group. One additional group of fourteen mice was not given AZT or any treatments (basal).
(§1) All of the animals were weighed on the day the experiment began, on day six and on day 13. After weighing the mice on days six and thirteen blood (0.2–0.3 ml) was collected from seven mice in each group by retro-orbital bleeding into EDTA for subsequent differential blood cell counting, including reticulocytes. Mice were then sacrificed by cervical dislocation; their right femurs removed and the contents expelled for cell counting; and their spleens removed and weighed.

[3] = test system: hematopoietic system (AZT toxicity); assay: Oral TAU vs hematopoietic damage by AZT in drinking water (Example 8); assay type: in vivo, Balb/C female mice
Experimental: Forty-two Balb/C female mice, each weighing approximately 19 grams, were divided into three different groups of 14 animals each. The three groups were: basal (no AZT, no treatment), control (AZT, water), and TAU (AZT, TAU at 460 mg/kg/treatment). AZT was administered ad libitum in the drinking water at a concentration of 1.5 mg/ml throughout the course of the experiment. The volume of AZT solution consumed in all treatment groups was similar and averaged 2.25 ml per day per mouse, resulting in a daily AZT dose of about 170 mg/kg per day. Water and TAU were administered in a volume of 0.2 mL three times per day for the first 24 days of the study, and twice each day thereafter.
as §1, with “once each week,” for “on day six”, “immediately prior to sacrifice.” for “on day 13.”, “24” for “six”, “35,” for “thirteen”

[4] = test system: hematopoietic system (5-FU toxicity); assay: TAU dose-response on hematopoietic recovery after 5-FU (Example 2); assay type: in vivo, female Balb/C mice; parameters: Marrow: unit not given here; details: for HCT (11d): eleven days after 5-FU
Experimental: Seventy female Balb/C mice weighing approximately twenty grams were each given an i.p. injection of 5-FU (150 mg/kg) at 1:00 p.m. on the initial day of the study. These animals were then divided into five different treatment groups: control (water), and oral TAU at doses of 100, 250, 500, and 1,000 mg/kg/treatment. The test compounds were then given at 3:00, 5:00, 7:30, and 10:00 p.m. on the day of 5-FU administration; at 9:00 a.m., 11:00 a.m., and 1:00, 3:00, 6:00, and 10:00 p.m. the following day; and a final administration at 11:00 a.m. two days following the single 5-FU injection. Each treatment was given orally in a volume of 0.2 ml water (by gavage), except the highest dose of TAU which was administered in 0.4 ml of water.
On days seven and eleven following 5-FU administration, blood (0.2–0.3 ml) was collected from seven mice in each group by retro-orbital bleeding into EDTA for subsequent differential blood cell counting. Mice were sacrificed by cervical dislocation; their right femurs removed and the contents expelled for cell counting; and their spleens removed and weighed.

[5] = day 13, AZT i.p. + oral TAU 460 mg/kg/treatment
[6] = day 24, AZT in drinking water + oral TAU 460 mg/kg/treatment
[7] = day 35, AZT in drinking water + oral TAU 460 mg/kg/treatment
[8] = seven days after 5-FU, oral TAU 100 mg/kg/treatment
[9] = seven days after 5-FU, oral TAU 250 mg/kg/treatment
[10] = seven days after 5-FU, oral TAU 500 mg/kg/treatment
[11] = seven days after 5-FU, oral TAU 1000 mg/kg/treatment

O=c1ccn([C@@H]2O[C@H](CO)[C@@H](O)[C@H]2O)c(=O)[nH]1 [Urd, uridine]
concentration at 0 h ([1]; female, Balb/C, mouse, plasma, oral, 1000 mg/kg, 0 hr (basal, before TAU or uridine), DPM 25 mg/kg i.p. 30 min before where given, read-out: Plasma uridine levels): 2 µM | concentration at 0.5 h ([1]; female, Balb/C, mouse, plasma, oral, 0.5 hr after uridine 1000 mg/kg p.o. or equimolar TAU 1500 mg/kg p.o., ± DPM 25 mg/kg i.p., read-out: Plasma uridine levels): 4 µM | concentration at 1 h ([1]; female, Balb/C, mouse, plasma, oral, 1 hr after uridine 1000 mg/kg p.o. or equimolar TAU 1500 mg/kg p.o., ± DPM 25 mg/kg i.p., read-out: Plasma uridine levels): 6 µM | concentration at 2 h ([1]; female, Balb/C, mouse, plasma, oral, 2 hr after uridine 1000 mg/kg p.o. or equimolar TAU 1500 mg/kg p.o., ± DPM 25 mg/kg i.p., read-out: Plasma uridine levels): 4 µM | concentration at 4 h ([1]; female, Balb/C, mouse, plasma, oral, 4 hr after uridine 1000 mg/kg p.o. or equimolar TAU 1500 mg/kg p.o., ± DPM 25 mg/kg i.p., read-out: Plasma uridine levels): 2 µM | peak plasma uridine levels ([1]; uridine 1000 mg/kg p.o. or equimolar TAU 1500 mg/kg p.o., ± DPM 25 mg/kg i.p.): 6 µM

CC(=O)OC[C@H]1O[C@@H](n2ccc(=O)[nH]c2=O)[C@H](OC(C)=O)[C@@H]1OC(C)=O [TAU, triacetyluridine]
HCT [2, 5]: 40.83 ± 0.37% | HGB [2, 5]: 14.54 ± G/dL | Lymph. [2, 5]: 6.06 ± 0.38 K/μl | Neutro. [2, 5]: 0.62 ± 0.03 K/μl | Platelets [2, 5]: 863 ± 26 K/μl | RBC [2, 5]: 8.58 ± M/μl | Retic. [2, 5]: 0.162 ± 0.014 M/μl | WBC [2, 5]: 7.0 ± K/μl | bone marrow cellularity ([2]; day six, AZT 100 mg/kg i.p. three times daily + oral TAU 230 mg/kg): 8.89±0.46 | RBC levels ([2]; day six, AZT i.p. + oral TAU 460 mg/kg/treatment): 9.15±0.07 ×10^6 per microliter | WBC counts ([2]; day six, AZT i.p. + oral TAU 920 mg/kg): 8.46±0.63 ×10^3 per microliter | Body weights ([3]; day 7, AZT […] in drinking water + oral TAU 460 mg/kg/treatment): 19.51±0.38 grams | RBC counts [3, 6]: 9.01±0.09 | Total neutrophil counts [3, 6]: 0.91±0.06 | HCT [3, 7]: 41.26 ± .62 percentage | HGB [3, 7]: 15.14 ± .12 gm/dl | MCH (mean cell hematocrit) [3, 7]: 18.49 ± .28 picograms | MCV [3, 7]: 50.41 ± .48 fL | PLT [3, 7]: 809 ± 06 K/μl | RBC [3, 7]: 8.20 ± .20 M/μl | reticulocyte levels [3, 7]: 0.371 ×10^6 per microliter | Total neutrophil counts vs control ([4]; day eleven after 5-FU, TAU 250, 500, and 1,000 groups): significantly greater than control values | Spleen weight ([4]; day eleven after 5-FU, TAU 250 group): 104.2 ± 3.5 mg | Red blood cell counts ([4]; day eleven after 5-FU, TAU 500 group): 8.72±0.18 ×10^6 per microliter | Red blood cell counts ([4]; day eleven after 5-FU, TAU 1000 group): 8.63±0.16 ×10^6 per microliter | Total neutrophil counts, fold of controls ([4]; day seven after 5-FU, TAU 1,000 group): approximately three-fold | HCT (11d) ([4]; T100): 36.80 | HCT (11d) ([4]; T250): 37.47 ± .83 | HCT (11d) ([4]; T500): 41.16 ± .88 | HCT (11d) ([4]; T1000): 41.55 ± .77 | Marrow ([4]; seven days after 5-FU 150 mg/kg i.p., oral TAU 100 mg/kg/treatment): 1.77 ± .18 | HCT (7d) ([4]; seven days after 5-FU, T100): 37.77 | HCT (7d) ([4]; seven days after 5-FU, T250): 40.04 ± .38 | HCT (7d) ([4]; seven days after 5-FU, T500): 39.50 ± .61 | HCT (7d) ([4]; seven days after 5-FU, T1000): 40.84 ± .68 | Lym [4, 8]: 2.46 ± .04 K/μl | Neut [4, 8]: .014 ± .008 K/μl | PLT [4, 8]: 440 ± 46 K/μl | RBC [4, 8]: 8.20 ± .07 M/μl | WBC [4, 8]: 2.47 ± .04 K/μl | Lym [4, 9]: 2.71 ± .20 K/μl | Marrow [4, 9]: 2.91 ± .48 | Neut [4, 9]: .027 ± .012 K/μl | PLT [4, 9]: 601 ± 46 K/μl | RBC [4, 9]: 8.51 ± .06 M/μl | WBC [4, 9]: 2.76 ± .20 K/μl | Lym [4, 10]: 3.99 ± .15 K/μl | Marrow [4, 10]: 3.93 ± .39 | Neut [4, 10]: .037 ± .020 K/μl | PLT [4, 10]: 712 ± 42 K/μl | RBC [4, 10]: 8.43 ± .16 M/μl | WBC [4, 10]: 4.06 ± .14 K/μl | Lym [4, 11]: 3.44 ± .23 K/μl | Marrow [4, 11]: 4.42 ± .34 | Neut [4, 11]: .071 ± .027 K/μl | PLT [4, 11]: 715 ± 35 K/μl | RBC [4, 11]: 8.65 ± .15 M/μl | WBC [4, 11]: 3.57 ± .25 K/μl
